Results on 13 molecules are retold here after publication PMC4594013 (Frontiers in Pharmacology, 2015).

One may read the IC50 as the concentration that inhibits the measured activity by half. The term % Inhibition denotes the change of the read-out against control, counted positive when it falls. Low values mean a weak effect, high ones a strong effect.

Values joined by “and” are separate entries in the source; they are usually repeats but may differ in a detail not shown here. Identical values can stand only once. Counter-ions that a name gives are not always drawn. Like-named read-outs stand apart in the source and are kept apart here.

The test system of one series is OAT2-tv3. On the set-up: method as in Sato et al., 2010. The conditions noted are these: OAT2-tv3 in HEK293 cells; ref Sato et al., 2010; cited from earlier work.
The target of series [1] is T1, OAT2-tv1 (Homo sapiens, UniProt Q9Y694).
T1 sequence (Q9Y694 1-546 isoform Q9Y694-2): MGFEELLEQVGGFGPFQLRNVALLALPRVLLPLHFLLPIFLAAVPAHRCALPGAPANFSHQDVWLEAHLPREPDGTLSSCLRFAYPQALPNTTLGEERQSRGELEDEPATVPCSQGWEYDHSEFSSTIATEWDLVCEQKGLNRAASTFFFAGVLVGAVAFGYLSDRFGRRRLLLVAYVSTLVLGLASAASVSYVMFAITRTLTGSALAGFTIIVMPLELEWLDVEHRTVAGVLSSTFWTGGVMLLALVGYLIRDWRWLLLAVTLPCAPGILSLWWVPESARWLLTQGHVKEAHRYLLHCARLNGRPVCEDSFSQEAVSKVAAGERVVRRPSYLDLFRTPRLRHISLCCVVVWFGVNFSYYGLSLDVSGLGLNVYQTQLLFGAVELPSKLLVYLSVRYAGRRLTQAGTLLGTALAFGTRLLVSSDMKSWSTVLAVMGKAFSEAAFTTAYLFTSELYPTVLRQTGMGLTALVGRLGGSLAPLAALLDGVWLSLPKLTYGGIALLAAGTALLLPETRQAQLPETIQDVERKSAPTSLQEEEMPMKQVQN
The conditions noted are these: cited from earlier work.

In series [2] the target is T1, OAT2-tv1. The series is described as follows: Inhibition of [3H]penciclovir uptake into CHO-OAT2-tv1 cells. The conditions noted are these: 5 min; for IC50 / % Inhibition: room temperature; for % Inhibition: inhibition of [3H]penciclovir uptake by CHO-OAT2-tv1 cells at the maximum concentration of test compound (Table 2, c1); for cis-inhibition of penciclovir uptake: CHO-OAT2-tv1 cells, test compound 1 mM, [3H]penciclovir ∼30 nM. In kind it is cell-based. As for the experimental part:
(§1) All experiments examining cellular radiolabeled compound uptake were conducted using cells grown to confluence in 24-well flat bottom plates. The transport solution consisted of WB (room temperature) containing radiolabeled compound and the uptake period for all experiments was at an initial rate time point of 5 min. [^3H]Penciclovir served as the probe OAT2 substrate. We also examined the uptake of [^3H]para-aminohippurate, [^3H]estrone-3-sulfate, [^14C]glutarate, [^14C]succinate, [^3H]paclitaxel, and [^3H]dehydroepiandrosterone sulfate by OAT2 since published studies indicate that they are substrates of the transport protein ([Sun et al., 2001]; [Kobayashi et al., 2005a]). […] For all cellular uptake experiments, the medium was aspirated and the cells were rinsed once with WB (0.3 ml). Following the uptake period, cells were washed three times with ice-cold WB (0.5 ml each wash). After aspirating the final wash the cells were lysed in 0.5 N NaOH/1% SDS (0.4 ml) for ∼30 min on an orbital shaker. 1 N HCl (0.2 ml) was then added to neutralize the NaOH, and the cell lysates (0.5 ml) were transferred to scintillation vials containing liquid scintillation cocktail (CytoScint ES, MP Biomedicals). Cellular radioactivity content was determined with a Beckman LS6500 liquid scintillation counter. Protein content was determined using the bicinchoninic acid method. See the Figure and Table Legends for additional details describing the experimental conditions used.
The concentration of each Kreb’s cycle intermediate was 1 mM. Uptake was conducted for 5 min.

Series [3] has as its system OAT2 with an unidentified sequence. The conditions noted are these: cited from earlier work.
For series [4], the target named is T1, OAT2-tv1. The series is described as follows: Cellular uptake of radiolabeled compounds by CHO, HEK or MDCK cells stably expressing OAT2-tv1. The conditions noted are these: for uptake compared to respective parental cells: CHO-, HEK- and MDCK-OAT2-tv1 cells, para-aminohippurate 8 nM, estrone-3-sulfate 10 nM, glutarate 18 μM. How it is done: as §1
FIGURE 2 Cellular accumulation of [^3H]penciclovir (A), [^3H]para-aminohippurate (B), [^3H]estrone-3-sulfate (C), or [^14C]glutarate (D) by parental CHO, HEK, or MDCK cells, or CHO, HEK, or MDCK cells stably expressing either OAT2-tv1 or OAT2-tv2. The concentration of [^3H]penciclovir in the transport solution was 0.1 μM for CHO and MDCK cell experiments, and 0.5 μM for HEK cell experiments. The concentrations of [^3H]para-aminohippurate, [^3H]estrone-3-sulfate and [^14C]glutarate were 8 nM, 10 nM, and 18 μM, respectively. Uptake was conducted for 5 min at room temperature.
FIGURE 4 Cellular accumulation of [^14C]succinate (18.5 μM) by CHO parental cells, CHO-OAT2-tv1 cells or CHO cells stably expressing the Na-dicarboxylate cotransporter 3 (NaDC3). Uptake was conducted for 5 min. Values are the mean ± standard error of the mean of four experiments for CHO parental and CHO-OAT2-tv1 cells. A single uptake experiment was performed with CHO-NaDC3 cells.

For series [5], the target named is T2, OAT2-tv2 (Homo sapiens, UniProt Q9Y694).
T2 sequence (Q9Y694 1-548): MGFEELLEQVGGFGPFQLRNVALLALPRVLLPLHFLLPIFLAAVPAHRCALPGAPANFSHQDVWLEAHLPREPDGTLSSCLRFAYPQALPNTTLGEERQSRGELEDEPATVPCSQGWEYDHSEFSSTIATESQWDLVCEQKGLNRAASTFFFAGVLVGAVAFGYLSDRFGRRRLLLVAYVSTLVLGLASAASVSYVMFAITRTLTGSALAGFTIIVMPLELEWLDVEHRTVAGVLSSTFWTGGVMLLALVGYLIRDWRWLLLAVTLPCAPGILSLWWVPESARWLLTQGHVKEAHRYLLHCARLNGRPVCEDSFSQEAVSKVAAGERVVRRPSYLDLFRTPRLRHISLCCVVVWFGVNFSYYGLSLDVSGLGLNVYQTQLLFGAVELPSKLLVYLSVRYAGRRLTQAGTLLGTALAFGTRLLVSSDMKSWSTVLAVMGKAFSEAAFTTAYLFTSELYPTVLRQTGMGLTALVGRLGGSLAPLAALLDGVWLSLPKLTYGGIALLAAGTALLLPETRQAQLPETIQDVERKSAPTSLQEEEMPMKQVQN
The experiment in a line: Cellular uptake of radiolabeled compounds by CHO, HEK or MDCK cells stably expressing OAT2-tv2. Type of series: cell-based. On the set-up: The open reading frame of the human ortholog of OAT2 transcript variant 2 (OAT2-tv2) containing 548 amino acids was amplified from a construct obtained from Origene; host or cells: CHO, HEK and MDCK Flp-In cells. The conditions noted are these: HEK- and MDCK-OAT2-tv2 cells, penciclovir 0.1/0.5 μM, para-aminohippurate 8 nM, estrone-3-sulfate 10 nM, glutarate 18 μM, 5 min. How it is done:
[^3H]Penciclovir served as the probe OAT2 substrate. […] Protein content was determined using the bicinchoninic acid method.
Uptake was conducted for 5 min at room temperature.

The target of series [6] is T1, OAT2-tv1. On the set-up: The open reading frame of the human ortholog of OAT2 transcript variant 1 (OAT2-tv1) containing 546 amino acids was amplified from human kidney cDNA; expressed in transfected cells; host or cells: CHO Flp-In (A1); CHO, HEK and MDCK Flp-In (A2). The conditions noted are these: ref Babelova et al., 2015; cited from earlier work.
Series [7] has as its target T2, OAT2-tv2. The arrangement: method as in Kobayashi et al., 2005a. The conditions noted are these: OAT2-tv2 in Xenopus oocytes pre-loaded with 5 mM compound; ref Kobayashi et al., 2005a; cited from earlier work.
For a further series, the system named is CHO parental cells. The experiment in a line: Cellular accumulation of radiolabeled compounds in CHO parental cells. In kind it is cell-based, Chinese hamster. The conditions noted are these: [3H]dehydroepiandrosterone sulfate 12 nM, [3H]paclitaxel 22 nM, n = 3.
[8] abbreviates: inhibition of [3H]penciclovir uptake by CHO-OAT2-tv1 cells, read-out: IC50.

Regarding `Oc1ncnc2[nH]ncc12` [Allopurinol], the “inhibition of uric acid transport” value in the series on OAT2-tv3 was “did not inhibit uric acid transport”. At OAT2-tv1 [1] (ref Cropp et al., 2008), the “substrate of OAT2-tv1” value is listed as “substrate”. Moreover, at OAT2-tv1 [2] (IC50, inhibition of [3H]penciclovir uptake by CHO-OAT2-tv1 cells), the IC50 is 70 µM and 70.1 µM. Besides, the “% Inhibition” value on OAT2-tv1 [2] is reported as 95%.
In the case of `CN/C(=N/CCSCc1nc[nH]c1C)NC#N` [Cimetidine], the “inhibition of OAT2” value in series [3] (ref Khamdang et al., 2004) is recorded as “no inhibition”. Further, the “% Inhibition” value on OAT2-tv1 [2] came out at 95%. Also, the IC50 at OAT2-tv1 [2] (setting [8]) was 57 µM and 57.2 µM.
`C[C@]12CC[C@@H]3c4ccc(OS(=O)(=O)O)cc4CC[C@H]3[C@@H]1CCC2=O` [Estrone Sulfate]: the “uptake compared to respective parental cells” value at OAT2-tv1 [4] (5 min) and on OAT2-tv2 [5] was “not different than uptake into the respective parental cells” in each case. Besides, on OAT2-tv1 [2], the “% Inhibition” value came out at 95%. Moreover, at OAT2-tv1 [2] (setting [8]), the 50% inhibitory concentration (IC50) is 36.1 ± 3.9 µM.
Regarding `NS(=O)(=O)c1cc(C(=O)O)c(NCc2ccco2)cc1Cl` [Furosemide], in [3] (ref Hasannejad et al., 2004), the IC50 is 603 µM. On OAT2-tv1 [2], the “% Inhibition” value is 90%.
In the case of `COc1ccc2c(c1)c(CC(=O)O)c(C)n2C(=O)c1ccc(Cl)cc1` [Indomethacin], the IC50 in series [3] (ref Khamdang et al., 2002) was 64.1 µM. For the same molecule, the “% Inhibition” value at OAT2-tv1 [2] came out at 99%.
On to `Nc1nc2c(ncn2CCC(CO)CO)c(=O)[nH]1` [Penciclovir], for which the “uptake of penciclovir, fold higher compared to parental cells” value is 21 fold at OAT2-tv1 [4] (CHO-OAT2-tv1 cells, [3H]penciclovir 0.1 μM, 5 min); 39 fold on OAT2-tv1 [4] (HEK-OAT2-tv1 cells, [3H]penciclovir 0.5 μM, 5 min); 5 fold at OAT2-tv1 [4] (MDCK-OAT2-tv1 cells, [3H]penciclovir 0.1 μM, 5 min). The “uptake compared to respective parental cells” value on OAT2-tv2 [5] is reported as “not different from uptake into the respective parental cells”. For the same molecule, the “substrate of OAT2-tv1” value on OAT2-tv1 [1] (ref Cheng et al., 2012) is “clearly substrates of OAT2-tv1”. For the same molecule, the “% Inhibition” value on OAT2-tv1 [2] is listed as 85%. Also, on OAT2-tv1 [2] (setting [8]), the IC50 turned out to be 78.4 ± 8.2 µM.
As to `O=C(O)/C=C(/CC(=O)O)C(=O)O` [cis-aconitate], the “cis-inhibition of OAT2-tv1-mediated cGMP transport” value on OAT2-tv1 [6] is listed as “did not observe cis-inhibition”. For the same molecule, the “cis-inhibition of penciclovir uptake” value on OAT2-tv1 [2] is “none of the Kreb’s cycle intermediates tested, including succinate and fumarate, cis-inhibited penciclovir uptake”.
With `O=C(O)CC(O)(CC(=O)O)C(=O)O` [citrate], the “cis-inhibition of OAT2-tv1-mediated cGMP transport” value on OAT2-tv1 [6] is listed as “did not observe cis-inhibition”. Further, the “cis-inhibition of penciclovir uptake” value on OAT2-tv1 [2] was “none of the Kreb’s cycle intermediates tested, including succinate and fumarate, cis-inhibited penciclovir uptake”.
For `O=C(O)/C=C/C(=O)O` [fumarate], the “stimulation of estrone-3-sulfate uptake by pre-loading” value on OAT2-tv2 [7] is 1.7 fold. The “cis-inhibition of penciclovir uptake” value at OAT2-tv1 [2] was “none of the Kreb’s cycle intermediates tested, including succinate and fumarate, cis-inhibited penciclovir uptake”.
As to `Nc1nc(O)c2ncn(COC(CO)CO)c2n1` [ganciclovir], on OAT2-tv1 [1] (ref Cheng et al., 2012), the “substrate of OAT2-tv1” value is “clearly substrates of OAT2-tv1”.
`O=C(O)CCCC(=O)O` [glutarate]: the “uptake compared to respective parental cells” value at OAT2-tv1 [4] (5 min) and on OAT2-tv2 [5] was “not different than uptake into the respective parental cells” in each case.
Take `CC(=O)O[C@H]1C(=O)[C@@]2(C)[C@H]([C@H](OC(=O)c3ccccc3)[C@]3(O)C[C@H](OC(=O)[C@H](O)[C@@H](NC(=O)c4ccccc4)c4ccccc4)C(C)=C1C3(C)C)[C@]1(OC(C)=O)CO[C@@H]1C[C@@H]2O` [paclitaxel]: the cellular accumulation at OAT2-tv1 [4] (5 min, 22 nM) is 90 ± 5.1 fmoles ⋅ mg protein^-1 ⋅ min^-1; in the series with CHO parental cells, 89 ± 3.8 fmoles ⋅ mg protein^-1 ⋅ min^-1. Besides, on OAT2-tv1 [4] (expressed in CHO cells), the “mediated transport by OAT2-tv1” value was “unable to show mediated transport”.
Regarding `Nc1ccc(C(=O)NCC(=O)O)cc1` [para-aminohippurate], the “uptake compared to respective parental cells” value at OAT2-tv1 [4] (5 min) and on OAT2-tv2 [5] was “not different than uptake into the respective parental cells” each time. Besides, the “uptake by HEK-OAT2-tv1 cells” value on OAT2-tv1 [1] (ref Cropp et al., 2008) is “failed to observe appreciable uptake”. At OAT2-tv1 [2], the “% Inhibition” value was 99%. On OAT2-tv1 [2] (setting [8]), the IC50 came to 210 µM.
